Reference: patent US9249131B2, “Modulators of ATP-binding cassette transporters” (Vertex Pharmaceuticals Incorporated, priority 2003, dated 2016)

Target: T1, ΔF508-CFTR (Homo sapiens, UniProt P13569, DEL508-508)
T1 construct: expressed in transfected cells; host or cells: NIH3T3 mouse fibroblasts stably expressing ΔF508-CFTR for the optical, whole-cell and single-channel assays; Fisher rat epithelial (FRT) cells for Ussing chamber follow-up
Experiment: Assays for ΔF508-CFTR correction and potentiator properties (membrane potential optical and electrophysiological methods)
Type: cell-based
Details: CFTR modulation; for % Activity: % Efficacy; for EC50: tested using the above methods
How it was run: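 NIH3T3 mouse fibroblasts stably expressing ΔF508-CFTR were used, with membrane potential read by DiSBAC2(3)/CC2-DMPE FRET on VIPR. Correctors: 16 h compound exposure at 37 °C, then activation with forskolin plus genistein in Cl⁻-free medium. Potentiators: cells held 24 h at 27 °C, compound added in Cl⁻-free medium, 2-10 μM forskolin 22 s later (final Cl⁻ 28 mM).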

T1 sequence (P13569 with tags, fused parts or gaps DEL508-508): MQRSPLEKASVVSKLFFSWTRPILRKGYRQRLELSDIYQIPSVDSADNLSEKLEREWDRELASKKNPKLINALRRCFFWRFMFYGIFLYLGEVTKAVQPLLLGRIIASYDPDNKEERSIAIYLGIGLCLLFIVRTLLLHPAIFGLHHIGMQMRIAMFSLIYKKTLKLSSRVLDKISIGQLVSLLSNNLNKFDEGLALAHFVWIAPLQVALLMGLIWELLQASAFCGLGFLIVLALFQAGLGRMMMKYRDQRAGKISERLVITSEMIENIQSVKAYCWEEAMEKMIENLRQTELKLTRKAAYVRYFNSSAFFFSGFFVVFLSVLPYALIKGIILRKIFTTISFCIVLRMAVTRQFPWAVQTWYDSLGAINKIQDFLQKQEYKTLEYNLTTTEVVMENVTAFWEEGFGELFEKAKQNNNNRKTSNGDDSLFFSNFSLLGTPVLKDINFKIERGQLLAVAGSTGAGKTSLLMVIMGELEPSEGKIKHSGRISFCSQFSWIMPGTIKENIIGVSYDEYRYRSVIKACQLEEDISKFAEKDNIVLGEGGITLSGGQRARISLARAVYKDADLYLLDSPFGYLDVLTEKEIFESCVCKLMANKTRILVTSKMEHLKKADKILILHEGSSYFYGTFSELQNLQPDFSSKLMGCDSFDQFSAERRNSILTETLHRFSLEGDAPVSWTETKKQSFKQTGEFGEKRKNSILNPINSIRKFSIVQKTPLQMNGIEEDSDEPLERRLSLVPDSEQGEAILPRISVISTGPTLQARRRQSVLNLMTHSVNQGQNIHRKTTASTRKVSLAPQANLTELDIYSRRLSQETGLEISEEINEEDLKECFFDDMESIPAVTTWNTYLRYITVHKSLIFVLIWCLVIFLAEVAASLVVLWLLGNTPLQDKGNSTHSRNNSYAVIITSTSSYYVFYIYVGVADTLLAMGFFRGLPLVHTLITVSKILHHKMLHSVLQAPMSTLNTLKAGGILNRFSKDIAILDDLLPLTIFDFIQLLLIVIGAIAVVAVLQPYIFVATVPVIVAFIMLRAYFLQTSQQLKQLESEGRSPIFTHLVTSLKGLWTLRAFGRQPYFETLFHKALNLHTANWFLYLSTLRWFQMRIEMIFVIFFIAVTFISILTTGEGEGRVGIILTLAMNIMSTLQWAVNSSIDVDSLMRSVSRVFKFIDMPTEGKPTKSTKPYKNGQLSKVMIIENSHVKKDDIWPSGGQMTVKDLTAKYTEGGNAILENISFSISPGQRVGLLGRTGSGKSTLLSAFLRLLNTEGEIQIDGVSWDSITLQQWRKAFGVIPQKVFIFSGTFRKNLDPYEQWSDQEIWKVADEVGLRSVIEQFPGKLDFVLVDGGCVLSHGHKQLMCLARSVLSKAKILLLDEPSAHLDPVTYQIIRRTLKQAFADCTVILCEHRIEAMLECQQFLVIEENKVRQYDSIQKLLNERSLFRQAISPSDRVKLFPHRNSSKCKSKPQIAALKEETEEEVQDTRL

SMILES	% Activity	EC50 [µM]
Cc1ccc(S(=O)(=O)N2CCN(C(C)C(=O)Nc3nc(-c4ccccc4)c(-c4ccccc4)s3)CC2)cc1 (stereo not shown) [compound 198]	++ (“++” means between 25% to 100%)	< 10
CC(C(=O)Nc1nc(-c2ccccc2)cs1)N1CCN(S(=O)(=O)c2ccc(Br)cc2)CC1 (stereo not shown) [compound 199]	+++ (“+++” means >100%)	< 10
CC[C@@H](C(=O)Nc1ncc(Cc2ccccc2Cl)s1)c1ccccc1 [compound 201]	+++ (“+++” means >100%)	< 10
CC[C@H](C(=O)Nc1ncc(Cc2ccccc2Cl)s1)c1ccccc1 [compound 202]	++ (“++” means between 25% to 100%)	< 10
CC[C@@H](C(=O)Nc1ncc(Cc2cccc(Cl)c2)s1)c1ccccc1 [compound 203]	++ (“++” means between 25% to 100%)	< 10
CC[C@H](C(=O)Nc1ncc(Cc2cccc(Cl)c2)s1)c1ccccc1 [compound 204]	++ (“++” means between 25% to 100%)	< 10
CC[C@H](C(=O)Nc1ncc(Cc2ccc(Cl)cc2)s1)c1ccccc1 [compound 205]	++ (“++” means between 25% to 100%)	< 10
CC(C)CC(=O)Nc1ncc(Cc2ccccc2Cl)s1 [compound 206]	++ (“++” means between 25% to 100%)	< 10
O=C(Nc1ncc(Cc2ccccc2Cl)s1)C1CC1 [compound 207]	++ (“++” means between 25% to 100%)	< 10
CCC(=O)Nc1ncc(Cc2ccccc2Cl)s1 [compound 208]	++ (“++” means between 25% to 100%)	25 to 60
O=C(Nc1ncc(Cc2ccccc2Cl)s1)C1CCCC1 [compound 209]	++ (“++” means between 25% to 100%)	< 10
CCCC(=O)Nc1ncc(Cc2ccccc2Cl)s1 [compound 210]	++ (“++” means between 25% to 100%)	10 to 25
CN(C)C(C(=O)Nc1ncc(Cc2ccccc2Cl)s1)c1ccccc1 (stereo not shown) [compound 211]	++ (“++” means between 25% to 100%)	< 10
CCN(CC)C(C(=O)Nc1ncc(Cc2ccccc2Cl)s1)c1ccccc1 (stereo not shown) [compound 212]	++ (“++” means between 25% to 100%)	< 10
CCNC(C(=O)Nc1ncc(Cc2ccccc2Cl)s1)c1ccccc1 (stereo not shown) [compound 213]	++ (“++” means between 25% to 100%)	10 to 25
O=C(Nc1ncc(Cc2ccccc2Cl)s1)C(c1ccccc1)N1CCOCC1 (stereo not shown) [compound 214]	++ (“++” means between 25% to 100%)	10 to 25
O=C(Nc1ncc(Cc2ccccc2Cl)s1)C(c1ccccc1)N1CCCCC1 (stereo not shown) [compound 215]	++ (“++” means between 25% to 100%)	< 10
COC(C(=O)Nc1ncc(Cc2ccccc2Cl)s1)c1ccccc1 (stereo not shown) [compound 216]	++ (“++” means between 25% to 100%)	10 to 25
CNC(C(=O)Nc1ncc(Cc2ccccc2Cl)s1)c1ccccc1 (stereo not shown) [compound 217]	++ (“++” means between 25% to 100%)	25 to 60
CCC(NC)C(=O)Nc1ncc(Cc2ccccc2Cl)s1 (stereo not shown) [compound 218]	++ (“++” means between 25% to 100%)	25 to 60

SMILES	% Activity	EC50 [µM]
CCC(OC)C(=O)Nc1ncc(Cc2ccccc2Cl)s1 (stereo not shown) [compound 219]	++ (“++” means between 25% to 100%)	25 to 60
CCNC(CC)C(=O)Nc1ncc(Cc2ccccc2Cl)s1 (stereo not shown) [compound 220]	++ (“++” means between 25% to 100%)	25 to 60
CCC(C(=O)Nc1ncc(Cc2ccccc2Cl)s1)N(CC)CC (stereo not shown) [compound 221]	++ (“++” means between 25% to 100%)	10 to 25
CCC(C(=O)Nc1ncc(Cc2ccccc2Cl)s1)N(C)C (stereo not shown) [compound 222]	++ (“++” means between 25% to 100%)	25 to 60
CCC(C(=O)Nc1ncc(Cc2ccccc2Cl)s1)N1CCOCC1 (stereo not shown) [compound 223]	++ (“++” means between 25% to 100%)	25 to 60
CCC(C(=O)Nc1ncc(Cc2ccccc2Cl)s1)N1CCSCC1 (stereo not shown) [compound 224]	++ (“++” means between 25% to 100%)	< 10
CCC(C(=O)Nc1ncc(Cc2ccccc2Cl)s1)N1CCCCC1 (stereo not shown) [compound 225]	++ (“++” means between 25% to 100%)	< 10
Cc1cccc(C(=O)Nc2ncc(-c3ccccc3)s2)c1 [compound 226]	++ (“++” means between 25% to 100%)	10 to 25
COc1ccccc1-c1csc(NC(=O)c2cccc(Cl)c2)n1 [compound 227]	++ (“++” means between 25% to 100%)	10 to 25
Cc1cccc(C(=O)Nc2nc(-c3ccccc3Cl)cs2)c1 [compound 228]	++ (“++” means between 25% to 100%)	10 to 25
O=C(Nc1nc(-c2ccccc2Cl)cs1)c1cccc(Cl)c1 [compound 229]	++ (“++” means between 25% to 100%)	10 to 25
Cc1ccc(C(=O)Nc2nc(-c3ccccc3Cl)cs2)cc1 [compound 230]	+++ (“+++” means >100%)	< 10
COc1cccc(-c2csc(NC(=O)c3cccc(C)c3)n2)c1 [compound 231]	+++ (“+++” means >100%)	10 to 25
COc1cccc(-c2csc(NC(=O)c3cccc(Cl)c3)n2)c1 [compound 232]	++ (“++” means between 25% to 100%)	10 to 25
O=C(Nc1ncc(-c2ccccc2)s1)c1cccc(Cl)c1 [compound 233]	++ (“++” means between 25% to 100%)	25 to 60
CCOC(C(=O)Nc1ncc(Cc2ccccc2Cl)s1)c1ccccc1 (stereo not shown) [compound 234]	++ (“++” means between 25% to 100%)	10 to 25
O=C(Nc1ncc(Cc2ccccc2Cl)s1)C(c1ccccc1)n1cccn1 (stereo not shown) [compound 235]	++ (“++” means between 25% to 100%)	< 10
COc1ccccc1Cc1cnc(NC(=O)C(C)(C)c2ccccc2)s1 [compound 237]	+++ (“+++” means >100%)	< 10
CC(C)(C(=O)Nc1ncc(Cc2ccccc2Cl)s1)c1ccccc1 [compound 238]	+++ (“+++” means >100%)	< 10
CCN(C)C(C(=O)Nc1ncc(Cc2ccccc2Cl)s1)c1ccccc1 (stereo not shown) [compound 239]	++ (“++” means between 25% to 100%)	< 10

SMILES	% Activity	EC50 [µM]
CN(C1CCCCC1)C(C(=O)Nc1ncc(Cc2ccccc2Cl)s1)c1ccccc1 (stereo not shown) [compound 240]	++ (“++” means between 25% to 100%)	< 10
O=C(Nc1ncc(Cc2ccccc2Cl)s1)C(c1ccccc1)N1CCCC1 (stereo not shown) [compound 241]	++ (“++” means between 25% to 100%)	< 10
CC1CCCN1C(C(=O)Nc1ncc(Cc2ccccc2Cl)s1)c1ccccc1 (stereo not shown) [compound 242]	+++ (“+++” means >100%)	< 10
CC1CCCN(C(C(=O)Nc2ncc(Cc3ccccc3Cl)s2)c2ccccc2)C1 (stereo not shown) [compound 243]	+++ (“+++” means >100%)	< 10
O=C(Nc1ncc(Cc2ccccc2Cl)s1)C(c1ccccc1)N1CCCC(CO)C1 (stereo not shown) [compound 244]	++ (“++” means between 25% to 100%)	< 10
CCOC(=O)C1CCCN(C(C(=O)Nc2ncc(Cc3ccccc3Cl)s2)c2ccccc2)C1 (stereo not shown) [compound 245]	++ (“++” means between 25% to 100%)	< 10
CC1CCN(C(C(=O)Nc2ncc(Cc3ccccc3Cl)s2)c2ccccc2)CC1 (stereo not shown) [compound 246]	++ (“++” means between 25% to 100%)	< 10
CCOC(=O)C1CCN(C(C(=O)Nc2ncc(Cc3ccccc3Cl)s2)c2ccccc2)CC1 (stereo not shown) [compound 247]	+++ (“+++” means >100%)	< 10
O=C(Nc1ncc(Cc2ccccc2Cl)s1)C(c1ccccc1)N1CCC(O)CC1 (stereo not shown) [compound 248]	++ (“++” means between 25% to 100%)	< 10
O=C(Nc1ncc(Cc2ccccc2Cl)s1)C(c1ccccc1)N1CCN(c2ncccn2)CC1 (stereo not shown) [compound 249]	++ (“++” means between 25% to 100%)	< 10
O=C(Nc1ncc(Cc2ccccc2Cl)s1)C(NC1CCCC1)c1ccccc1 (stereo not shown) [compound 250]	++ (“++” means between 25% to 100%)	< 10
CCC(Nc1ccccc1)C(=O)Nc1ncc(Cc2ccccc2Cl)s1 (stereo not shown) [compound 251]	++ (“++” means between 25% to 100%)	< 10
CCC(Oc1ccccc1)C(=O)Nc1ncc(Cc2ccccc2Cl)s1 (stereo not shown) [compound 252]	++ (“++” means between 25% to 100%)	10 to 25
CCOC(=O)C1CCCCN1C(C(=O)Nc1ncc(Cc2ccccc2Cl)s1)c1ccccc1 (stereo not shown) [compound 253]	++ (“++” means between 25% to 100%)	25 to 60
CN(Cc1ccccc1)C(C(=O)Nc1ncc(Cc2ccccc2Cl)s1)c1ccccc1 (stereo not shown) [compound 254]	++ (“++” means between 25% to 100%)	< 10
CCC(C(=O)Nc1ncc(Cc2ccccc2Cl)s1)c1cccnc1 (stereo not shown) [compound 255]	++ (“++” means between 25% to 100%)	< 10
N#Cc1ccccc1Cc1cnc(NC(=O)C(c2ccccc2)C2CCCCC2)s1 (stereo not shown) [compound 256]	++ (“++” means between 25% to 100%)	< 10
CC(C(=O)Nc1ncc(Cc2ccccc2C#N)s1)c1ccccc1 (stereo not shown) [compound 257]	++ (“++” means between 25% to 100%)	25 to 60
CCC(C(=O)Nc1ncc(Cc2ccccc2C#N)s1)c1ccccc1 (stereo not shown) [compound 258]	++ (“++” means between 25% to 100%)	10 to 25
